Among the test systems are A498 renal; BT-549 breast; COLO 205 colon; HCC-2998 colon; HS 578T breast; MALME-3M melanoma; RPMI-8226 leukemia; SF-539 CNS; T-47D breast; UACC-257 melanoma.
Common to all, as to assay: NCI-60 cell line screen, 48 h

Molecules are shown by their SMILES. Values joined by “and” are separate entries in the source; they are usually repeats but may differ in a detail not shown here. Identical values can stand only once.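 Exposure lasted 48 hours, with cells grown in 96-well plates and compounds tested at five concentrations. The concentration for 50% growth inhibition is given as GI50. TGI denotes the concentration required for complete inhibition of growth.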

Consider `COC(=O)[C@@H](C)C[C@H](Cc1ccccc1)NC(=O)c1csc([C@@H](C[C@H](C(C)C)N(C)C(=O)[C@@H](NC(=O)[C@H]2CCCCN2C)C2CC2)OC(C)=O)n1`, for which the GI50 is 0.000862 µM with A498 renal; 0.000506 µM and 0.00165 µM with BT-549 breast; 0.000369 µM and < 0.00165 µM with COLO 205 colon; 0.000338 µM and 0.00165 µM in the test on HCC-2998 colon; 0.00112 µM and 0.00165 µM in the test on HS 578T breast; 0.000312 µM in the test with MALME-3M melanoma. Also, the GI50 in the test on RPMI-8226 leukemia was 0.000225 µM and 0.00165 µM; in the test on SF-539 CNS, 0.00125 µM and 0.00165 µM. The TGI with BT-549 breast was 0.0298 µM and 0.0146 µM; with COLO 205 colon it was 0.00336 µM and < 0.00165 µM; in the test with HCC-2998 colon, more than 16.5 µM; in the test with HS 578T breast, more than 16.5 µM; in the test on RPMI-8226 leukemia it was more than 16.5 µM; in the test with SF-539 CNS, 0.00448 µM and 0.00257 µM.
For the molecule `S=P(N1CC1)(N1CC1)N1CC1`, the GI50 with A498 renal was 24.5 µM; in the test with BT-549 breast, 224 µM; in the test on HCC-2998 colon, 22.5 µM and 208 µM; in the test with HS 578T breast it was 534 µM; with RPMI-8226 leukemia it was 28 µM; in the test on SF-539 CNS, 11.4 µM and 23.3 µM. Also, the GI50 in the test on T-47D breast was 45.5 µM; in the test on UACC-257 melanoma, 29 µM and 272 µM. In addition, the TGI was 39.8 µM and 280 µM in the test on A498 renal; 507 µM and 445 µM with BT-549 breast; 913 µM and 962 µM in the test on HS 578T breast; 92.3 µM and 792 µM and 706 µM in the test on RPMI-8226 leukemia; 49 µM and 223 µM and 182 µM in the test on SF-539 CNS; 950 µM and 913 µM in the test on T-47D breast.
As to `O=C1c2ccccc2-c2c1c1ccccc1c(=O)n2CCCn1ccnc1`, the GI50 in the test on A498 renal was 2.74 µM; with BT-549 breast it was 3.36 µM; in the test on COLO 205 colon it was 5.41 µM; with HS 578T breast it was 7.92 µM; in the test on MALME-3M melanoma, 2.45 µM; in the test with RPMI-8226 leukemia, 0.73 µM. For the same molecule, the values for the GI50 with SF-539 CNS and with T-47D breast were 2.33 µM and 3.28 µM, respectively. The TGI in the test on A498 renal was 14.1 µM; in the test with BT-549 breast, more than 100 µM; in the test with COLO 205 colon, more than 100 µM; with HS 578T breast, 94.7 µM; with MALME-3M melanoma, 5.75 µM; with RPMI-8226 leukemia, 6.26 µM. The TGI with SF-539 CNS was 8.06 µM; in the test on T-47D breast, more than 100 µM.
Regarding `CCOC(=O)c1c2c(n3ccccc13)C(=O)c1ncccc1C2=O`, the GI50 in the test with BT-549 breast is 0.0637 µM; in the test with COLO 205 colon it was 1.65 µM; in the test with HCC-2998 colon, 0.877 µM; with MALME-3M melanoma it was 0.0561 µM; with RPMI-8226 leukemia it was 0.423 µM; in the test with SF-539 CNS, 0.111 µM. The GI50 is 2.51 µM with T-47D breast and 0.28 µM with UACC-257 melanoma. Moreover, the TGI turned out to be 41 µM with BT-549 breast; 4.93 µM in the test with COLO 205 colon; 14.3 µM in the test with HCC-2998 colon; 4.56 µM in the test with MALME-3M melanoma; 19.5 µM in the test on RPMI-8226 leukemia; 1.96 µM in the test with SF-539 CNS. Further, the TGI in the test on T-47D breast stood at 47.8 µM; in the test with UACC-257 melanoma, 4.21 µM.
As to `C=C(Br)CNC(=O)CCC(=O)NCC(=C)Br`, the TGI in the test with A498 renal, in the test with COLO 205 colon, with HCC-2998 colon, in the test with HS 578T breast, in the test with MALME-3M melanoma and in the test on RPMI-8226 leukemia was more than 100 µM in each case. The TGI in the test on SF-539 CNS, in the test with T-47D breast and in the test with UACC-257 melanoma was more than 100 µM in each case.
Regarding `CC12CCC(Br)C(C)(C)C1CC=C1C(=O)OCC1O2` (stereo not given), the TGI with A498 renal was 24.7 µM; in the test with BT-549 breast, 41 µM; in the test with COLO 205 colon, 34.7 µM; with HCC-2998 colon it was 24.9 µM; in the test with HS 578T breast, 55 µM; in the test on RPMI-8226 leukemia, more than 60.6 µM. Further, the TGI was more than 100 µM with SF-539 CNS, 45 µM in the test with T-47D breast and 27 µM in the test with UACC-257 melanoma.
Take `O=C1C[C@@H]2/C(=C(O)\C=C\c3ccccc3)C(=O)C=C[C@@H]2O1`: the GI50 with A498 renal was 10.9 µM; with BT-549 breast, 2.84 µM; with COLO 205 colon, 0.992 µM; in the test with HS 578T breast, 5.27 µM; in the test on MALME-3M melanoma, 1.42 µM; with SF-539 CNS it was 2.3 µM. The GI50 with T-47D breast is 0.905 µM; in the test with UACC-257 melanoma, 1.83 µM. For the same molecule, the TGI is 23.1 µM with A498 renal; 8.45 µM with BT-549 breast; 2.62 µM in the test with COLO 205 colon; 60.5 µM with HS 578T breast; 3 µM in the test with MALME-3M melanoma; 8.35 µM in the test on SF-539 CNS. For the same molecule, the TGI with T-47D breast was 4.55 µM; in the test on UACC-257 melanoma it was 3.9 µM.
Turning to `COc1ccc2c(c1)C(=O)c1c-2n(CCCI)c(=O)c2cc([N+](=O)[O-])ccc12`, the GI50 with A498 renal was 0.609 µM and 0.157 µM; in the test on BT-549 breast, 0.112 µM and 0.786 µM; in the test with COLO 205 colon, 1.77 µM and 1.12 µM; with HCC-2998 colon it was 0.63 µM and 0.797 µM; in the test with HS 578T breast, 7.67 µM and 3.85 µM; in the test with MALME-3M melanoma it was 1.36 µM and 2.85 µM. Further, the GI50 in the test on SF-539 CNS was 0.0962 µM and 0.0577 µM; in the test on T-47D breast, 0.173 µM and 0.163 µM; with UACC-257 melanoma, 0.914 µM and 4.13 µM. The TGI in the test with A498 renal is 3.6 µM and 0.95 µM; with COLO 205 colon, 21.6 µM and 55.3 µM; with HCC-2998 colon, 6.41 µM and 21.9 µM; with HS 578T breast it was 31.2 µM and 35.3 µM; with MALME-3M melanoma, 18.4 µM and 43.3 µM; in the test on SF-539 CNS, 0.338 µM and 0.376 µM. The TGI in the test on T-47D breast was 1.65 µM and 8.64 µM; in the test with UACC-257 melanoma, 17.4 µM and 37.9 µM.
With `COc1cccc(/C=N/C(/N=C/c2cccc(OC)c2O)c2cccc(OC)c2O)c1O`, the TGI in the test on BT-549 breast was 71.9 µM; with COLO 205 colon, more than 100 µM; in the test on HCC-2998 colon it was 73.9 µM; with HS 578T breast, 61.5 µM; with RPMI-8226 leukemia it was more than 100 µM; in the test on SF-539 CNS, 48.9 µM. Besides, the values for the TGI in the test on T-47D breast and in the test with UACC-257 melanoma were 63.9 µM and 58.9 µM, respectively.
As to `CC(=O)OCc1cc2ccccc2nc1C(Br)(Br)Br`, the TGI is 42.8 µM in the test on A498 renal; 27.2 µM in the test on BT-549 breast; 55.2 µM in the test on COLO 205 colon; 29.3 µM with HCC-2998 colon; more than 100 µM in the test on HS 578T breast; 18.1 µM with MALME-3M melanoma. The figures for the TGI in the test on SF-539 CNS, in the test with T-47D breast and in the test with UACC-257 melanoma were 38.2 µM, more than 100 µM and 27 µM, respectively.
On to `CC(C(O)c1ccccc1)C(O)(C(F)(F)F)C(F)(F)F` (stereo not given), for which the TGI in the test on A498 renal, with COLO 205 colon, in the test with HCC-2998 colon, with HS 578T breast, in the test with MALME-3M melanoma and in the test on RPMI-8226 leukemia was more than 100 µM in each case. Further, the TGI with SF-539 CNS, in the test with T-47D breast and with UACC-257 melanoma was more than 100 µM throughout.
As to `COc1cc(C2CC(c3ccc(Nc4ccnc5cc(Cl)ccc45)cc3)=NN2c2ccc(Cl)cc2)cc(OC)c1OC` (stereo not given), the GI50 was 1.66 µM in the test on A498 renal; 2.93 µM with BT-549 breast; 3.28 µM with COLO 205 colon; 2.09 µM in the test with HCC-2998 colon; 2.18 µM in the test with HS 578T breast; more than 100 µM with MALME-3M melanoma. The GI50 in the test on SF-539 CNS is 1.74 µM; with T-47D breast it was 2.13 µM; with UACC-257 melanoma, 2.72 µM. Also, the TGI in the test on A498 renal is 50.6 µM; with BT-549 breast, more than 100 µM; in the test on COLO 205 colon it was 31.5 µM; in the test on HCC-2998 colon, 8.03 µM; with HS 578T breast it was more than 100 µM; with MALME-3M melanoma, more than 100 µM. Besides, the TGI with SF-539 CNS was 7.36 µM; in the test with T-47D breast, more than 100 µM; with UACC-257 melanoma, 36.4 µM.
Consider `O=c1c(O)c(-c2cc(O)c(O)c(O)c2)oc2cc(O)cc(O)c12`, for which the TGI in the test on A498 renal, in the test on BT-549 breast, in the test with COLO 205 colon, in the test with HS 578T breast, in the test with MALME-3M melanoma and in the test with RPMI-8226 leukemia was more than 100 µM in each case. In addition, the TGI in the test on SF-539 CNS, in the test on T-47D breast and in the test with UACC-257 melanoma was more than 100 µM throughout.
Turning to `CN(Cc1cc(C(C)(C)C)cc(Br)c1O)Cc1cc(C(C)(C)C)cc(Br)c1O`, the TGI in the test on A498 renal came to 8.93 µM; with BT-549 breast, 14.4 µM; in the test with COLO 205 colon, 28.4 µM; in the test on HS 578T breast, 7.65 µM; in the test with MALME-3M melanoma, 13.7 µM; in the test with RPMI-8226 leukemia, 6.79 µM. For the same molecule, the TGI amounted to 7.66 µM in the test on SF-539 CNS, 12.3 µM with T-47D breast and 5.85 µM with UACC-257 melanoma.
Consider `CN(C)CCNC(=O)c1ccc(NC(=O)c2nc([N+](=O)[O-])cn2C)cc1`, for which the TGI in the test with A498 renal, in the test with BT-549 breast, in the test on COLO 205 colon, in the test with HS 578T breast, in the test on MALME-3M melanoma and in the test with RPMI-8226 leukemia was more than 100 µM each time. Also, the TGI with SF-539 CNS, with T-47D breast and in the test on UACC-257 melanoma was more than 100 µM throughout.
For `COC(=O)/C=C/c1cc2c(cc1-c1c(C(=O)O)cc(OC)c(OC)c1OC)OCO2`, the TGI in the test on BT-549 breast, with COLO 205 colon, in the test on HCC-2998 colon, with HS 578T breast, with MALME-3M melanoma and in the test on RPMI-8226 leukemia was more than 10 µM each time. Besides, the TGI in the test with SF-539 CNS, in the test on T-47D breast and with UACC-257 melanoma was more than 10 µM each time.
In the case of `CCOc1ccc2nc(NC(=O)C(=O)C(c3cnc4ccccc4n3)[N+](=O)[O-])sc2c1` (stereo not given), the TGI with A498 renal, in the test with BT-549 breast, in the test with HCC-2998 colon, in the test with HS 578T breast, in the test on MALME-3M melanoma and in the test on RPMI-8226 leukemia was more than 100 µM each time. Besides, the TGI in the test with SF-539 CNS, with T-47D breast and with UACC-257 melanoma was more than 100 µM each time.

The record behind these values is PubChem BioAssay (NCI).
